Usually inhibition stands for the percentage by which the read-out fell short of the control. For orientation: IC50 means the concentration that inhibits the measured activity by half. A word on the ED50: it is the dose at which the effect has come halfway, by size or by number of responders.

Read-outs that look alike come from different tables or passages of the source.

This note sets out measurements from patent publication US4496590A, “Benzyl alcohol derivatives, their preparation and use” (Sterling Drug Inc., priority 1983, dated 1985).

One experiment has as its target T1, lipoxygenase (Rattus norvegicus, UniProt P12527).
T1 construct: Single cell suspensions of RBL-1 cells are homogenized to obtain the microsomal fraction containing lipoxygenase and cyclooxygenase; endogenous in cells; host or cells: RBL-1 (rat basophilic leukemia) cells, homogenate / microsomal fraction
T1 sequence (P12527 1-673): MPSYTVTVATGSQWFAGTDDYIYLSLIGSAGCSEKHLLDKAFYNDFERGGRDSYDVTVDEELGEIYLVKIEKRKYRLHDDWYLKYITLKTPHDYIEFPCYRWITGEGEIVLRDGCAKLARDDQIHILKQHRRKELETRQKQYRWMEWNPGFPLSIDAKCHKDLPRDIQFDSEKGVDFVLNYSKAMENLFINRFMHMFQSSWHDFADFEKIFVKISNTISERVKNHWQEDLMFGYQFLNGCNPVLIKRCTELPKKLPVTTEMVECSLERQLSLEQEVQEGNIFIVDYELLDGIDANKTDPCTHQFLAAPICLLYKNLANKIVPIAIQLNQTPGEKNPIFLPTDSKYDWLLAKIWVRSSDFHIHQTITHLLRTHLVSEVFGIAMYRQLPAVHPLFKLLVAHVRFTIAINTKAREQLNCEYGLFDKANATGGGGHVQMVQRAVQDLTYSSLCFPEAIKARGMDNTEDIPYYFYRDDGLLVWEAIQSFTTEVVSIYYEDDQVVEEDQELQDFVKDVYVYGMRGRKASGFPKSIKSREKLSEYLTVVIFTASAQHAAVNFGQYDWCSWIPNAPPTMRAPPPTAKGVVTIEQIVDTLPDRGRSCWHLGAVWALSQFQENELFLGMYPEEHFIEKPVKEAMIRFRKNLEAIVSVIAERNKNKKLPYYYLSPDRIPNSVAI
Put plainly: inhibition of lipoxygenase derived from rat basophilic leukemia (RBL-1) cells (L1 5,12-di-HETE and L2 5-HETE formation). It counts as biochemical. The conditions noted are these: RBL-1 enzyme. Here is the method:
(§1) The primary screening test used is a determination of the inhibition of lipoxygenase and cyclooxygenase derived from rat basophilic leukemia (RBL-1) cells. The test was carried out according to the following procedure:
(§2) Single cell suspensions of RBL-1 cells are homogenized to obtain the microsomal fraction containing lipoxygenase and cyclooxygenase. Test compounds are added to the enzyme-containing homogenate for a 5 min preincubation period at 37° C. prior to the addition of ^14 C-arachidonic acid substrate. Following incubation at 37° C. for 15 min, the reaction is stopped by the addition of 2M formic acid and the enzyme-substrate products are extracted into chloroform. An aliquot of the extract is evaporated to dryness, reconstituted in ether to 1/10 original volume, spotted on thin layer chromatography plates and chromatographed. The peak areas of radioactivity representing the products are located by scanning the plates. The quantity of products formed is estimated by measuring the height of the radioactivity peaks observed on the chromatographic scans. Alternatively, the areas of radioactivity are scraped from the plate and the ^14 C quantitated by scintillation counting. The percent inhibition in the formation of the cyclooxygenase product PGD2, designated as Cl and lipoxygenase products, L1 designated for 5,12-di-HETE and L2 for 5-HETE are shown. Compounds with >50% inhibition of L1 and L2 at a screening concentration of 1 μM are considered active.
(§3) ^(a) Percent inhibition of cyclooxygenase (C1) and lipoxygenase (L1
(§4) and L2) formation at a dose of 1 μM.
(§5) ^(b) Inhibitory concentration (μ M) in 50% of tests.

For the next experiment, the target named is T2, cyclooxygenase (Rattus norvegicus, UniProt Q63921).
T2 construct: 14C-arachidonic acid substrate, PGD2 measured
T2 sequence (Q63921 27-602): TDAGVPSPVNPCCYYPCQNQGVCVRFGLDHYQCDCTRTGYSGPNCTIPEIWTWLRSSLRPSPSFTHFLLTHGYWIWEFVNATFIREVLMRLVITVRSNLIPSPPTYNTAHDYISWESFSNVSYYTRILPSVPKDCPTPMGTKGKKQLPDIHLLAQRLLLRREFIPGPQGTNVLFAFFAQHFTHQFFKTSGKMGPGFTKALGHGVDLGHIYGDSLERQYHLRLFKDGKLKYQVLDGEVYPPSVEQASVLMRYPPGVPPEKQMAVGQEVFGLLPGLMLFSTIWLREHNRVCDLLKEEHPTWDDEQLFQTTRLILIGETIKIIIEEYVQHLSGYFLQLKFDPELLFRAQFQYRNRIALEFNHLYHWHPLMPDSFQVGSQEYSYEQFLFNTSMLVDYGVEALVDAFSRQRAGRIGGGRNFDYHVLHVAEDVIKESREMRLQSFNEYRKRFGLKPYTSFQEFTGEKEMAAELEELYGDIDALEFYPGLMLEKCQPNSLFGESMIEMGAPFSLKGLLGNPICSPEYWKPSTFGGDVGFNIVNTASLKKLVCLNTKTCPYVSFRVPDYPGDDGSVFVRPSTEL
The experiment can be described thus: inhibition of cyclooxygenase derived from rat basophilic leukemia (RBL-1) cells (PGD2 formation, C1). The conditions noted are these: RBL-1 enzyme, read-out: % Inhibition C1 (cyclooxygenase product PGD2). It counts as biochemical. As to the method:
as §1, §2, §3, §4, §5

In experiment [1] the test system is SRS-A component of immunologically induced broncho-construction. Put plainly: effect on the SRS-A component of immunologically induced bronchoconstriction in guinea pigs. It counts as in vivo. The conditions noted are these: i.v.; for ED50: Cavia porcellus, iv, guinea pig, indomethacin + chlorpheniramine medicated, arachidonic acid, antigen challenge, read-out: In vivo Guinea Pig ED50 i.v. Here is the method:
The test was carried out according to the following procedure:
Two weeks after immunization with egg albumin, guinea pigs are prepared for bronchoconstruction determination. One hour prior to antigen challenge, each animal is dosed orally with idomethacin and chlorpheniramine. Animals are anesthetized with sodium pentobarbital, the trachea cannulated and the animal artifically respired. Arachidonic acid is administered intravenously prior to antigen challenge. The resulting bronchoconstruction is recorded by the standard lung overflow procedure and the peak increase in intratracheal pressure (mm Hg) over a 10 minute observation period is recorded. Compounds are evaluated for their ability to prevent the increased intratracheal pressure in an experimental group of animals as compared to the medicated (indomethacin+chlorpheniramine+arachidonic acid) control group. The results are expressed in terms of percent inhibition or as ED50 values (effective does in 50% of the animals).

[2] abbreviates: L1 5,12-di-HETE, read-out: % Inhibition L1 (lipoxygenase product 5,12-di-HETE).
Setting [3] is: L2 5-HETE, read-out: % Inhibition L2 (lipoxygenase product 5-HETE).
Where [4] appears, read: L1 5,12-di-HETE, read-out: IC50 L1 (lipoxygenase product 5,12-di-HETE).
Where [5] appears, read: L2 5-HETE, read-out: IC50 L2 (lipoxygenase product 5-HETE).

On to `COc1ccc(Nc2ccc(O)cc2)c(C(C)O)c1` (stereo not drawn) [Example 6c, 2-(4-Hydroxyphenylamino)-5-methoxy-α-methylbenzenemethanol], for which the inhibition at 1 µM on lipoxygenase (setting [2]) worked out at 89%; on lipoxygenase (setting [3]), 98%; on cyclooxygenase, 2%. For the same compound, the IC50 was found to be 200 nM at lipoxygenase (setting [4]) and 160 nM at lipoxygenase (setting [5]).
Turning to `COc1ccc(N=C2C=CC(=O)C=C2)c(CO)c1` [Example 8, 4-(2-Hydroxymethyl-4-methoxyphenylimino)-2,5-cyclohexadien-1-one], in experiment [1], the ED50 stood at 0.12 mg/kg. Moreover, the inhibition at 1 µM at lipoxygenase (setting [2]) is 85%; on lipoxygenase (setting [3]), 96%; on cyclooxygenase it was 0%. The values for the IC50 at lipoxygenase (setting [4]) and at lipoxygenase (setting [5]) were 190 nM and 150 nM, respectively.
With `COc1ccc(Nc2ccc(O)cc2)c(CO)c1` [Example 1c, 2-(4-Hydroxyphenylamino)-5-methoxybenzenemethanol], in experiment [1], the ED50 came out at 0.13 mg/kg. The inhibition at 1 µM at lipoxygenase (setting [2]) amounted to 88%; at lipoxygenase (setting [3]), 98%; on cyclooxygenase, 2%. The IC50 at lipoxygenase (setting [4]) was found to be 200 nM; at lipoxygenase (setting [5]) it was 90 nM.
For the compound `OCc1cc(Cl)ccc1Nc1ccc(O)cc1` [Example 3c, 5-Chloro-2-(4-hydroxyphenylamino)benzenemethanol], the ED50 in experiment [1] came to 0.49 mg/kg. Also, the inhibition at 1 µM is 81% on lipoxygenase (setting [2]), 99% at lipoxygenase (setting [3]) and 6% on cyclooxygenase. The results for the IC50 at lipoxygenase (setting [4]) and at lipoxygenase (setting [5]) were 60 nM and 40 nM, respectively.
`CC(O)c1ccccc1Nc1ccc(O)cc1` (stereo not drawn) [Example 5c, 2-(4-Hydroxyphenylamino)-α-methylbenzenemethanol]: the figures for the inhibition at 1 µM on lipoxygenase (setting [2]), at lipoxygenase (setting [3]) and on cyclooxygenase were 86%, 99% and 14%, respectively. For the same compound, the IC50 is 200 nM at lipoxygenase (setting [4]) and 180 nM at lipoxygenase (setting [5]).
Regarding `OCc1ccccc1Nc1ccc(O)cc1` [Example 2c, 2-(4-Hydroxyphenylamino)benzenemethanol], the median effective dose (ED50) in experiment [1] came to 0.84 mg/kg. For the same compound, the inhibition at 1 µM was 84% at lipoxygenase (setting [2]), 94% at lipoxygenase (setting [3]) and 4% at cyclooxygenase. Further, the values for the IC50 at lipoxygenase (setting [4]) and on lipoxygenase (setting [5]) were 380 nM and 280 nM, respectively.
`OCc1ccc(Cl)cc1Nc1ccc(O)cc1` [Example 4c, 4-Chloro-2-(4-hydroxyphenylamino)benzenemethanol]: the “In vivo Guinea Pig percent inhibition” value was 43% in experiment [1] (0.3 mg/kg) and 63% in experiment [1] (1-3 mg/kg). Besides, the inhibition at 1 µM on lipoxygenase (setting [2]) worked out at 82%; at lipoxygenase (setting [3]), 100%; at cyclooxygenase, 24%. The figures for the IC50 at lipoxygenase (setting [4]) and on lipoxygenase (setting [5]) were 230 nM and 160 nM, respectively.
